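Each compound was tested at five concentrations against cells in 96-well plates for 48 hours. TGI: concentration producing complete growth inhibition.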

Some test systems named below: HT29 colon; M14 melanoma; HCT-15 colon; MOLT-4 leukemia; 786-0 renal; A498 renal; SN12C renal; LOX IMVI melanoma.
Assay in all cases: inhibition of tumour cell growth, NCI panel, 48 h

Regarding `CCCCc1c2c(nc3c1CCCC3O)/C(=C/c1ccccc1)CCC2` (centres undefined), the TGI in the assay with HT29 colon was 46.1 µM; in the assay on M14 melanoma, 53.8 µM; in the assay with HCT-15 colon it was 61.6 µM; in the assay on MOLT-4 leukemia, 38.7 µM; in the assay with 786-0 renal, 57 µM; with A498 renal, greater than 100 µM. The TGI came out at 62.5 µM in the assay with SN12C renal and 34.5 µM with LOX IMVI melanoma.
As for `COc1cccc(NC(=S)Nn2c(C)nc3ccccc3c2=O)c1`, the TGI with HT29 colon, in the assay with M14 melanoma, in the assay with HCT-15 colon, in the assay on MOLT-4 leukemia, with 786-0 renal and with A498 renal was greater than 100 µM throughout. Besides, the TGI in the assay on SN12C renal and in the assay with LOX IMVI melanoma was greater than 100 µM throughout.
As for `CCCn1c(SCC)c2ccccc2c1-c1nc(F)nc(F)n1`, the TGI with HT29 colon, with M14 melanoma, in the assay on HCT-15 colon, in the assay with MOLT-4 leukemia, in the assay on 786-0 renal and with A498 renal was greater than 100 µM each time. Also, the TGI in the assay with SN12C renal and in the assay with LOX IMVI melanoma was greater than 100 µM throughout.
On to `Clc1ccc(SCCSCCCCCCCCCCSCCSc2ccc(Cl)cc2)cc1`, for which the TGI in the assay on HT29 colon, in the assay with HCT-15 colon, in the assay with MOLT-4 leukemia, in the assay with 786-0 renal, with A498 renal and with SN12C renal was greater than 100 µM in each case. Moreover, the TGI in the assay on LOX IMVI melanoma is greater than 100 µM.
With `COC(OC)c1cccc2c1C(=O)CCC1(O)c3ccccc3C1C2` (centres undefined), the TGI in the assay with HT29 colon, with M14 melanoma, in the assay on HCT-15 colon, with MOLT-4 leukemia, in the assay with 786-0 renal and with SN12C renal was greater than 100 µM throughout. In the assay with LOX IMVI melanoma, this compound showed a TGI greater than 100 µM.
Regarding `COc1ccc(C2C3C(=O)C=CC(=O)C3[C@@H]2C)cc1OC` (some centres undefined), the TGI in the assay on HT29 colon is greater than 100 µM; in the assay on M14 melanoma, greater than 100 µM; in the assay on HCT-15 colon, 62.4 µM; with MOLT-4 leukemia, 91.9 µM; with 786-0 renal it was greater than 100 µM; in the assay on A498 renal it was greater than 100 µM. In addition, the TGI with LOX IMVI melanoma was greater than 100 µM.
Consider `COc1cc2c(c(C)c1O)[C@H]1COc3ccccc3[C@H]1O2`, for which the TGI is greater than 100 µM in the assay on HT29 colon; 24.6 µM with M14 melanoma; 18.5 µM in the assay with HCT-15 colon; 42.7 µM with MOLT-4 leukemia; 42.6 µM in the assay on 786-0 renal; greater than 100 µM in the assay on A498 renal. In the assay on LOX IMVI melanoma, this compound showed a TGI of 14.7 µM.
For `NC(=O)N1N=C2c3ccccc3CC[C@@H]2C1c1ccccc1` (some centres undefined), the TGI in the assay with HT29 colon, in the assay on M14 melanoma, with HCT-15 colon, with MOLT-4 leukemia, in the assay with 786-0 renal and in the assay with A498 renal was greater than 100 µM throughout. The TGI in the assay on SN12C renal and with LOX IMVI melanoma was greater than 100 µM each time.
On to `N#Cc1c(-c2ccco2)cc(-c2ccc(NCc3nc4ccccc4[nH]3)cc2)nc1N`, for which the TGI is 91.7 µM with HT29 colon; 35.8 µM in the assay with M14 melanoma; 69.2 µM with HCT-15 colon; 39.7 µM with MOLT-4 leukemia; 87.9 µM in the assay with 786-0 renal; greater than 100 µM in the assay with A498 renal. Besides, the TGI is 59.6 µM in the assay with SN12C renal and 32.7 µM in the assay on LOX IMVI melanoma.
With `COC(=O)C1=C(C(=O)OC)C2(OC(C)=O)c3ccccc3-c3ccccc3C12` (centres undefined), the TGI with HT29 colon turned out to be 10.6 µM; in the assay on M14 melanoma it was 9.47 µM; in the assay with HCT-15 colon, 10.3 µM; with 786-0 renal, 8.26 µM; with A498 renal, 32 µM; with SN12C renal, 9.28 µM. For the same compound, the TGI with LOX IMVI melanoma came out at 9.51 µM.
Consider `COC1=CC(=O)[C@H]2[C@H](C)C(c3ccccc3)[C@@]2(C)C1=O` (some centres undefined), for which the TGI in the assay on HT29 colon, in the assay with M14 melanoma, in the assay with HCT-15 colon, in the assay on MOLT-4 leukemia, in the assay with 786-0 renal and in the assay with A498 renal was greater than 100 µM throughout. Moreover, in the assay with LOX IMVI melanoma, the TGI was greater than 100 µM.
Turning to `CCCC/C=C/C1Cc2ccccc2CN1S(=O)(=O)c1ccc(C)cc1` (centres undefined), the TGI was determined as 21.7 µM with HT29 colon; 26 µM with M14 melanoma; 49.2 µM with HCT-15 colon; 53.3 µM with MOLT-4 leukemia; 25.1 µM in the assay with 786-0 renal; 23 µM in the assay with SN12C renal. In the assay on LOX IMVI melanoma, this compound gave a TGI of 22.3 µM.
In the case of `CC(=O)O/N=C/c1ncccc1OC(C)=O`, the TGI in the assay on HT29 colon, in the assay with M14 melanoma, in the assay on HCT-15 colon, in the assay on MOLT-4 leukemia, in the assay with 786-0 renal and in the assay with A498 renal was greater than 100 µM throughout. Also, the TGI with SN12C renal and with LOX IMVI melanoma was greater than 100 µM each time.
For `COc1cc(C2C(Cl)C(=O)N2NC(=O)c2ccccc2O)ccc1O` (centres undefined), the TGI in the assay with HT29 colon, in the assay on M14 melanoma, in the assay with HCT-15 colon, in the assay on MOLT-4 leukemia, in the assay on A498 renal and in the assay with SN12C renal was greater than 100 µM in each case. For the same compound, the TGI in the assay with LOX IMVI melanoma was greater than 100 µM.

Values taken from PubChem BioAssay (NCI).
